This assay concerns Plasmodium falciparum. Kind of assay: GSK_TCMDC: Inhibition of Plasmodium falciparum 3D7 in whole erythrocytes, using parasite LDH activity as an index of growth. The class given is functional, organism-based.

Molecules are shown by their SMILES.

The molecule `O=C1Nc2cccc3c2C1(CCCCN1CCC(c2cc4ccncc4[nH]2)CC1)CCC3` (stereo unspecified) had an XC50 of 0.911 µM. The XC50 (Plasmodium falciparum, 3D7) was 0.787 µM.
Regarding `CCOc1cc(Cc2cnc(N)nc2N)cc(OC)c1OC`, the XC50 (Plasmodium falciparum, 3D7) came to 0.913 µM.
Same read-out and setting: the same measure for `N#Cc1ccc(C(=O)Nc2cc(-c3cccc(O)c3)cc3[nH]ncc23)cc1`: 1.37 µM.
`Fc1ccc2[nH]c(-c3ccc(-c4ccc(CN5CCN(c6cnccn6)CC5)cc4)s3)nc2c1` displayed an XC50 (Plasmodium falciparum, 3D7) of 0.617 µM.
Same read-out and setting: the same measure for `O=C(/C=C/c1ccc(Cl)c(Cl)c1)NCCCCCN1CCC(NC(=O)Nc2cccc(Cl)c2F)CC1`: 0.378 µM; for `Clc1ccc(CNCCCCCCNCc2ccc(Cl)cc2)cc1`: 0.845 µM; for `Cc1ccc2c(OCCN3CCC(Cc4ccc5c(c4)NC(=O)CO5)CC3)cc(F)cc2n1`: 0.755 µM.
The same measure, in the same setting: the same measure for `CSc1c(CNCCCNc2cc(=O)c3ccccc3[nH]2)[nH]c2ccccc12`: 1.12 µM; for `CC(C)(C)OC(=O)NCC(=O)N(Cc1ccccc1)Cc1ccccc1`: 0.124 µM; for `CC(C)(C)c1cc(CN2CCN(Cc3ccccc3)CC2)cc(C(C)(C)C)c1O`: 0.771 µM.
Same read-out and setting: the figure for `CCCCc1cc(Cc2cnc(N)nc2N)cc(OC)c1OC` is 1.04 µM; for `COc1ccccc1C1CCN(C2CCC(NC(=O)/C=C/c3cc(F)cc(C(F)(F)F)c3)CC2)CC1` (stereo unspecified) it is 0.901 µM; for `CC(C)n1nc(C(=O)N2CCN(c3ccccc3)CC2)c2ccccc2c1=O` it is 0.979 µM.
Where the note is “Plasmodium falciparum, 3D7”, `CC1=CC(=O)[C@@H](O)[C@]2(C)[C@H]3[C@@]4(O)OC[C@@]35[C@@H](C[C@@H]12)OC(=O)C[C@H]5[C@@H](C)[C@H]4O` [CHAPARRINONE] returned an XC50 of 0.347 µM.
Still for that read-out and setting: the figure for `Nc1cccc(CNCc2ccc(-c3cccc(-c4nc5cc(C(F)(F)F)ccc5[nH]4)c3)cc2)c1` is 0.172 µM.
On the same count and under the same terms, the figure for `CCCn1cnc2cc(C(=O)Nc3ccc(-c4cccc(CN(C)C)c4)cc3)ccc2c1=O` is 0.928 µM; for `CC1CCCN(C(=O)c2cc(-c3ccccn3)nc3c(Cl)cccc23)C1` (stereo unspecified) it is 1.08 µM; for `COC(=O)c1cccc(CNCc2cccc(-c3ccc(-c4nc5cccc(C)c5[nH]4)cc3)c2)c1` it is 0.322 µM.
On the same count and under the same terms, the figure for `CN(C)CCNCc1nc(-c2ccc3c(Nc4ccc(Oc5ccccc5)cc4)ccnc3c2)cs1` is 0.736 µM.
`CN1CCCC(CN2CCN(Cc3ccc(-c4cccc(-c5nc6ccccc6[nH]5)c4)cc3)CC2)C1` (stereo unspecified) showed an XC50 (Plasmodium falciparum, 3D7) of 0.132 µM.
The same measure, in the same setting: the figure for `COC(=O)c1ccc(CC(C)NCC(O)c2cccc3ccccc23)cc1` (stereo unspecified) is 0.935 µM; for `COc1ccc(NC(=O)C2c3ccccc3C(=O)N(CC(C)C)C2c2cccs2)cc1OC` (stereo unspecified) it is 0.203 µM.
Same read-out and setting: the same measure for `FC(F)(F)c1ccc2[nH]c(-c3cccc(-c4ccc(CNCC5CCCO5)cc4)c3)nc2c1` (stereo unspecified): 0.277 µM.
Turning to `CC(C)CN(Cc1c(O)ccc2[nH]c(-c3ccc(F)cc3F)nc12)CC(C)C`, the XC50 (Plasmodium falciparum, 3D7) came out at 0.802 µM.
Same read-out and setting: the same measure for `Oc1ccc(CN2Cc3ccccc3OC3(CCN(Cc4c[nH]c5cnccc45)CC3)C2)cc1`: 1.17 µM; for `CCC(CO)NCC(O)Cn1c2ccc(Cl)cc2c2cc(Cl)ccc21` (stereo unspecified): 0.768 µM; for `O=S(=O)(c1ccccc1OC(F)(F)F)C1CC2CCC(C1)N2S(=O)(=O)c1cccc(C(F)(F)F)c1` (stereo unspecified): 0.665 µM.
Molecule `N=C(N)Nc1nc(CCCCCCCCc2csc(NC(=N)N)n2)cs1` came in with an XC50 (Plasmodium falciparum, 3D7) of 0.598 µM.
`COC(=O)C1(NC(=O)c2ccc(-n3nc(C)c(-c4ccccc4)c3N)cc2)CCCC1`: the XC50 (Plasmodium falciparum, 3D7) turned out to be 0.37 µM.
The same measure, in the same setting: the figure for `COc1ccccc1C1CN(CCNC(=O)c2nc(C)c[nH]2)Cc2ccccc2O1` (stereo unspecified) is 0.797 µM; for `O=C(Cc1cccnc1)N(Cc1ccc(-c2ccc(CNCc3cccnc3)cn2)cc1)C1CCN(Cc2ccccc2)CC1` it is 0.803 µM.
The same measure, in the same setting: the same measure for `Cc1cccc2nc(-c3ccc(-c4cccc(CNCCN(C)C)c4)cc3)[nH]c12`: 0.682 µM; for `CC(C)(C)C(=O)Nc1ccccc1Oc1ccc(Cl)cc1`: 0.00748 µM; for `O=C(NC1CCN(Cc2ccccc2)CC1)c1cccc(-c2cc3cc(Cl)c(Cl)cc3[nH]2)c1`: 0.725 µM.
Take `CCCNCc1ccc(-c2ccc(CN(CCOC)C(=O)Cc3cccnc3)cc2)nc1`: the XC50 (Plasmodium falciparum, 3D7) was determined as 0.823 µM.
In the case of `Cc1noc(-c2cccs2)c1C(=O)NCCc1cccc(Cl)c1`, the XC50 (Plasmodium falciparum, 3D7) stood at 0.463 µM.
As to `CC(=O)Nc1ccc(CN(Cc2ccc(F)cc2)Cc2cccc(Oc3ccccc3)c2)cc1`, the XC50 (Plasmodium falciparum, 3D7) was 0.943 µM.
Still for that read-out and setting: the same measure for `Cc1cc(CN2CC[C@H](NC(=O)c3ccc(Cl)c(Cl)c3)C2)ccc1OC1CCN(C)C1` (stereo partly specified): 0.947 µM.
`C[C@H](NC(=O)c1c(CN2CCC(NC(=O)CC(C)(C)C)CC2)c(-c2cccs2)nc2ccccc12)C1CCCCC1`: where the note is “Plasmodium falciparum, 3D7”, the XC50 was found to be 0.947 µM.
Same read-out and setting: the same measure for `NC1CCN(Cc2ccc(-c3ccc(-c4nc5cc(F)ccc5[nH]4)s3)cc2)C1` (stereo unspecified): 0.646 µM.
On the same count and under the same terms, the figure for `NCc1ccc(CNCc2cccc(-c3ccc(-c4nc5cc(C(F)(F)F)ccc5[nH]4)cc3)c2)cc1` is 0.261 µM; for `Cc1ccc(S(=O)(=O)N(CCCN2CCN(C)CC2)Cc2csc(-c3ccc(CNCc4ccccc4)cc3)n2)cc1` it is 0.841 µM; for `O=C(Nc1ccc(Cl)c(Cl)c1)Nc1ccc2nccc(N3CCNCC3)c2c1` it is 0.262 µM.
Still for that read-out and setting: the figure for `COc1ccc(CN2CCC(NCc3ccc(C(F)(F)F)cc3)CC2)cc1` is 0.916 µM; for `COc1cc2nc(N3CCC(CNC(=O)c4ccc(-c5ccc(C(F)(F)F)cc5)cc4)CC3)nc(N)c2cc1OC` it is 0.127 µM; for `CC(C)(C)c1ccc(C(=O)Nc2cccc(Nc3c(C(=O)NCc4cccc(C(F)(F)F)c4)cnc4c(O)cccc34)c2)cc1` it is 1.09 µM.
For the molecule `N=C1N=C(N)NC2(CCCCC2)N1OCC1CCCCC1`, the XC50 (Plasmodium falciparum, 3D7) was 0.155 µM.
The same measure, in the same setting: the same measure for `OC(CNCc1ccccc1Oc1ccccc1)c1cc(Br)cs1` (stereo unspecified): 1.11 µM; for `C=C[C@H]1CN2CC[C@H]1C[C@H]2[C@H](O)c1cc(-c2ccc(Cl)cc2)nc2ccc(OC)cc12`: 0.0303 µM; for `CN1CCC(Oc2ccc(CN3CC[C@H](NC(=O)c4cc(F)cc(F)c4)C3)c3ccccc23)C1` (stereo partly specified): 0.841 µM.
On the same count and under the same terms, the figure for `CN1CCc2ccc(NC(=O)Nc3ccc(-c4ccccc4)cc3)cc2C1` is 0.511 µM.
Still for that read-out and setting: the same measure for `O=C(/C=C/c1ccc(Cl)c(Cl)c1)NCCCCCN1CCCN(C(=O)Nc2ccc(C(F)(F)F)cc2)CC1`: 0.688 µM; for `c1cncc(CN2CCN(Cc3ccc(-c4ccc(-c5nc6ccccc6[nH]5)s4)cc3)CC2)c1`: 0.938 µM.
Where the note is “Plasmodium falciparum, 3D7”, `Cc1[nH]c(C)c(Cc2ccc(Oc3ccc(OC(F)(F)F)cc3)cc2)c(=O)c1Br` displayed an XC50 of 0.686 µM.
Under “Plasmodium falciparum, 3D7”, `Cc1cccc(CCNC(=O)c2cc(Br)cc(N3CCN(c4ccncc4)CC3)c2)c1` had an XC50 of 0.874 µM.
The molecule `COC(=O)c1cccc(NC(=O)NC2CCN(c3ccnc(Nc4cc(OC)c(OC)c(OC)c4)n3)C2)c1` (stereo unspecified) had an XC50 (Plasmodium falciparum, 3D7) of 0.512 µM.
Consider `CC(C)CC(=O)N1CCNC[C@@H]1C(=O)NCCSCc1c(F)cccc1Cl`, for which the XC50 (Plasmodium falciparum, 3D7) stood at 1.2 µM.
Regarding `CC(C)C(=O)ONC1=NC(=N)N(OCCCOc2cc(Cl)c(Cl)cc2Cl)C(C)(C)N1`, for the setting “Plasmodium falciparum, 3D7”, the XC50 was found to be 0.0032 µM.
Still for that read-out and setting: the same measure for `CCNc1cc(C(=O)N[C@@H](Cc2ccco2)[C@H](O)CNC2CCCCC2)cc(N2CCCCS2(=O)=O)c1`: 1.01 µM; for `O=C(Nc1cccc(C2=NCCCN2)c1)Nc1cccc(C2=NCCCN2)c1`: 0.561 µM.
Still for that read-out and setting: the figure for `O=C1C(=Cc2cc(Cc3ccccc3)ccc2O)SC(=S)N1Cc1ccccc1` is 0.943 µM; for `CN1CCN(S(=O)(=O)c2cccc(Nc3nccc(N(C)c4ccc5c(c4)nc(NC(=O)c4cccs4)n5C)n3)c2)CC1` it is 0.746 µM.
On the same count and under the same terms, the figure for `CCC1CN2CCc3cc(OC)c(OC)cc3C2CC1CC1NCCc2cc(OC)c(OC)cc21` (stereo unspecified) is 0.145 µM; for `COc1ccc2c(=NN=Cc3cccc(C)n3)cc(-c3ccccc3)[nH]c2c1` it is 0.751 µM.
Where the note is “Plasmodium falciparum, 3D7”, `O=C(/C=C/c1ccc(Cl)c(Cl)c1)NCCCCCN1CCC(c2c[nH]c3cc(O)ccc23)CC1` yielded an XC50 of 0.745 µM.
Still for that read-out and setting: the same measure for `N#Cc1ccc(N2CCN(C(=O)c3cccc(-c4noc(C(F)(F)F)n4)c3)CC2)nc1`: 0.22 µM; for `CC(NC(=O)NC1CCC(CCN2CCCc3ccccc32)CC1)c1cccc2ccccc12` (stereo unspecified): 1.02 µM; for `Cc1ccc(C(=O)NC2CC2)cc1-c1ccc2c(cnn2S(=O)(=O)c2ccc(F)cc2)c1`: 0.289 µM.
Still for that read-out and setting: the same measure for `O=c1ccc2ccc(F)c3c2n1CC3CN1CCC(NCc2ccc(-c3cccc(Cl)c3)nc2)CC1` (stereo unspecified): 0.992 µM; for `Cc1cc(C2CCN(CCCCNC(=O)c3ccc(-c4ccc(C(F)(F)F)cc4)cc3)CC2)c(C)cc1OCC(N)=O`: 0.805 µM; for `Cc1cc(CNCCCCCCCNCc2cccc([N+](=O)[O-])c2)ccc1O`: 0.637 µM.
Regarding `COc1ccc(OC)c(C(O)C(C)NCc2cc(Cl)ccc2O)c1` (stereo unspecified), the XC50 (Plasmodium falciparum, 3D7) worked out at 0.382 µM.
Same read-out and setting: the figure for `COCCn1ccc2c3c(N)nc(N)nc3ccc21` is 0.214 µM; for `CN(C)CCCN(C)c1cccc2c1nc(-c1cccnc1)n2CCNCc1ccccc1` it is 1.39 µM; for `N=C(N)Nc1nc(-c2ccc(NC(=O)Nc3cccc(-c4csc(NC(=N)N)n4)c3)cc2)cs1` it is 1.01 µM.
`CN(Cc1ccc(-c2ccc(C(F)(F)F)cc2)cc1)C(=O)Cn1c(CCc2cccc(F)c2F)cc(=O)c2ccc(OCC3CCCN3C)cc21` (stereo unspecified): the XC50 (Plasmodium falciparum, 3D7) is 1.07 µM.
On the same count and under the same terms, the same measure for `O=C(Cc1cc(F)cc(F)c1)NC1CCN(c2ccnc3cc(Cl)ccc23)C1` (stereo unspecified): 0.25 µM; for `CCOc1cc(C(=O)NCC2CCN(CC3CCCCC3)CC2)ccc1-c1nc2cc(Cl)ccc2[nH]1`: 0.563 µM; for `Cn1nc(-c2ccc(NC(=O)Nc3cc(C(F)(F)F)ccc3F)cc2)c2cnc(NCCc3c[nH]cn3)nc21`: 0.813 µM.
Still for that read-out and setting: the figure for `Fc1ccc(COc2ccc(Nc3ncnc4ccc(I)cc34)cc2Cl)cc1` is 1.18 µM; for `O=C(Cc1c[nH]cn1)Nc1ccc(-c2cccc(-c3nc4cc(C(F)(F)F)ccc4[nH]3)c2)cc1` it is 0.742 µM; for `CCNC(=O)Nc1ccc(-c2cccc(-c3nc4cccc(C)c4[nH]3)c2)cc1` it is 0.756 µM.
Still for that read-out and setting: the same measure for `COc1ccc(OC)c(NC(=O)CSc2nc(-c3ccccc3Cl)ns2)c1`: 0.835 µM.
`Clc1ccccc1CCNCC1CCN(CC2CCCCC2)CC1` came in with an XC50 (Plasmodium falciparum, 3D7) of 0.692 µM.
`N#Cc1cccc(CN(Cc2ccc(Cl)c(Cl)c2)S(=O)(=O)c2cccc([N+](=O)[O-])c2)c1`: the XC50 (Plasmodium falciparum, 3D7) was determined as 0.808 µM.

(Values after ChEMBL document CHEMBL1157539, “Thousands of chemical starting points for antimalarial lead identification” (Nature, 2010).)
